In patent US9364426B2, “Method of making coated microstructures” (Georgia Tech Research Corporation, priority 2005, dated 2016):
One block for each molecule: values may come before it.

Experiments:
[1] = Delivery from individual coated microneedles in vitro into pig cadaver skin; format: in vitro ADME; details: 20 s insertion into pig cadaver skin
Method: After removing the microneedles, fluorescence micrographs of coated microneedles and histological skin sections were collected using an Olympus IX70 fluorescent microscope with a CCD camera (RT Slider, Diagnostic Instruments). Brightfield micrographs were collected using an Olympus SZX12 stereomicroscope with a CCD camera (Leica DC 300, Leica Microsystems, Bannockburn, Ill., USA). Histological examination of pig cadaver skin was conducted on frozen sections. Pig cadaver skin was pierced with microneedles for 20 s, frozen in OCT compound (Tissue-Tek, 4583, Sakura Finetek, Torrance, Calif., USA), and cut into 10 μm-thick sections using a cryostat (Cryo-Star HM 560MV, Microm, Waldorf, Germany).

[2] = In vitro dissolution of microneedle coating in pig cadaver skin; format: in vitro ADME; details: single microneedles n=3
Source text: To assess the in vitro dissolution time, single microneedles (n=3) coated with vitamin B, calcein, or sulforhodamine, made as in Example 1, were inserted into pig cadaver skin for 10 s or 20 s. Upon removal, these microneedles were imaged by fluorescence microscopy to detect residual coating.

[3] = cited from earlier work
[4] = coated onto microneedles; six months storage under nitrogen at room temperature; cited from earlier work
[5] = test system: guinea pigs; details: model antigen delivered from coated microneedles; cited from earlier work
[6] = 10 s insertion into pig cadaver skin
[7] = 20 s insertion into pig cadaver skin

residue on the skin after insertion [1]: No residue was observed
dissolution of microneedle coating (residual coating by fluorescence microscopy) [2, 6]: majority of the coating was dissolved
dissolution of microneedle coating (residual coating by fluorescence microscopy) [2, 7]: completely dissolved
Molecule: O=C(O)CN(CC(=O)O)Cc1cc2c(cc1O)Oc1cc(O)c(CN(CC(=O)O)CC(=O)O)cc1C21OC(=O)c2ccccc21 [calcein]
distribution in skin, histology sections [1]: distribution of calcein along the periphery of the insertion point

Molecule: COc1cc(/C=C/C(=O)CC(=O)/C=C/c2ccc(O)c(OC)c2)ccc1O [curcumin]
solubility in water [3]: negligible

Molecule: NC(=O)CC[C@@H]1NC(=O)[C@H](Cc2ccccc2)NC(=O)[C@H](Cc2ccc(O)cc2)NC(=O)CCSSC[C@@H](C(=O)N2CCC[C@H]2C(=O)N[C@H](CCCN=C(N)N)C(=O)NCC(N)=O)NC(=O)[C@H](CC(N)=O)NC1=O [desmopressin]
integrity after storage [4]: 98%

dissolution of microneedle coating (residual coating by fluorescence microscopy) [2, 6]: majority of the coating was dissolved
dissolution of microneedle coating (residual coating by fluorescence microscopy) [2, 7]: completely dissolved
Molecule: sulforhodamine

B1: ovalbumin (protein, UniProt P01012 2-386, looked up)
Ovalbumin: GSIGAASMEFCFDVFKELKVHHANENIFYCPIAIMSALAMVYLGAKDSTRTQINKVVRFDKLPGFGDSIEAQCGTSVNVHSSLRDILNQITKPNDVYSFSLASRLYAEERYPILPEYLQCVKELYRGGLEPINFQTAADQARELINSWVESQTNGIIRNVLQPSSVDSQTAMVLVNAIVFKGLWEKAFKDEDTQAMPFRVTEQESKPVQMMYQIGLFRVASMASEKMKILELPFASGTMSMLVLLPDEVSGLEQLESIINFEKLTEWTSSNVMEERKIKVYLPRMKMEEKYNLTSVLMAMGITDVFSSSANLSGISSAESLKISQAVHAAHAEINEAGREVVGSAEAGVDAASVSEEFRADHPFLFCIKHIATNAVLFFGRCVSP
notes: model ovalbumin antigen delivered from coated microneedles
immune response [5]: strong immune response
